Patent publication US20230117034A1, “PYRAZOLOTRIAZINES” (Bayer Aktiengesellschaft, priority 2019, published 2023)

Biological target: T1, CDK12 (nuclear staining in CAL-120 cells) (Homo sapiens, UniProt Q9NYV4)
T1 construct: endogenous in cells; host or cells: CAL-120 human breast cancer cells (DSMZ ACC 459)
Assay: CDK12 nuclear protein level: immunofluorescence/high content analysis (CAL-120)
Type: cell-based
Conditions: for DC50: CAL-120 cells, 24 h, immunofluorescence, 50% reduction of nuclear CDK12 staining intensity, median, read-out: CDK12 degradation IF, DC50- [mol/l] (median); for (IC50 CDK12 high ATP) to (Degradation DC50 CDK12) ratio: ratio of IC50 CDK12 high ATP kinase assay to DC50 CDK12 degradation (IF, CAL-120)
Experimental: In the context of the present invention, the term “DC50 CDK12” refers to the DC50 values obtained according to the assay described in this section (7) herein below, i.e. the DC50 values for the degradation of CDK12.
Plates are then incubated for 24 h at 37° C. in an humidified incubator and fixed with 4% PFA for 10 min. […] Nuclear and cytoplasmic intensity as well as the nuclear/cytoplasmic intensity ratio is determined by automated image analysis using custom generated scripts (MetaXpress). Data is then transferred to Genedata Screener software, normalized to DMSO and control and DC50 values (degrading concentration to achieve 50% reduction of nuclear CDK12 staining intensity relative to controls) are reported.

T1 sequence (Q9NYV4 whole entry): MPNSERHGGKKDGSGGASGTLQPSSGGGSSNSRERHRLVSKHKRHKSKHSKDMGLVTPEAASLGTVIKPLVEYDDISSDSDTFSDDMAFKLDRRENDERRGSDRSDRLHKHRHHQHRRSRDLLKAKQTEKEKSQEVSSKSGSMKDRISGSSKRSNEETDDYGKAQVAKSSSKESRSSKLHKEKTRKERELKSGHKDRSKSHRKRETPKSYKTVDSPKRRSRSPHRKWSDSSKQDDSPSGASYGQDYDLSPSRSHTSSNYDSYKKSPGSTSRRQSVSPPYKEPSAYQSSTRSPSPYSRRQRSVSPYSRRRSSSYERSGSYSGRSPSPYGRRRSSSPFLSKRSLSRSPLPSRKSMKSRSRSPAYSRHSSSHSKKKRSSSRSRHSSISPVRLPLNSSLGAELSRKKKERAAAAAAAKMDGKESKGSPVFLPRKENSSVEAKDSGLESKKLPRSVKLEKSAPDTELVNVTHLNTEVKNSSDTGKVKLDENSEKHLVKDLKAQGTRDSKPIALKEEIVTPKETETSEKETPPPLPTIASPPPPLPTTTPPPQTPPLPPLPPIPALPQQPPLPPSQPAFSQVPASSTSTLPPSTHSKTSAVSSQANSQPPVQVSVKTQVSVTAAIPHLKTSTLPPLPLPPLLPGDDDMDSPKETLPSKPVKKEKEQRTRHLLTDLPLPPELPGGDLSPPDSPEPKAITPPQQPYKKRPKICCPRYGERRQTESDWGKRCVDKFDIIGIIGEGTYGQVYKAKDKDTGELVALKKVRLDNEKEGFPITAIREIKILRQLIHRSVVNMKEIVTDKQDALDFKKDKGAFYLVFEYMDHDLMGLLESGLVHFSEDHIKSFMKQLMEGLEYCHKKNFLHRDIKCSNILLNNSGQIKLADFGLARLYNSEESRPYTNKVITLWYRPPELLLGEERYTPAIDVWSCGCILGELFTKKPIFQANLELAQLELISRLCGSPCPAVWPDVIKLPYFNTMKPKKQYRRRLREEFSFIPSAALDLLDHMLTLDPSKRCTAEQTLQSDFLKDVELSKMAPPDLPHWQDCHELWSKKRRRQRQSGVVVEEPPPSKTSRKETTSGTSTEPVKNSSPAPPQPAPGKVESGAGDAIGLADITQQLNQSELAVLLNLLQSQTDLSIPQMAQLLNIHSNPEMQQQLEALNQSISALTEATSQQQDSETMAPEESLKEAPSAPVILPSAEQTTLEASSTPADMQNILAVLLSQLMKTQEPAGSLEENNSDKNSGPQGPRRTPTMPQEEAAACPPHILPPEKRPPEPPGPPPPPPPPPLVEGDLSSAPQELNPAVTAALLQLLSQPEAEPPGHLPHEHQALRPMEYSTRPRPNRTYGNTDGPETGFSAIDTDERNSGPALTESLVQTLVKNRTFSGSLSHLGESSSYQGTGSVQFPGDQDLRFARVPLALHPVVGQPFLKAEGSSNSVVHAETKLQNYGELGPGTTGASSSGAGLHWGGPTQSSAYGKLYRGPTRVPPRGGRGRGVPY
T1 sequence (O75909 whole entry partner): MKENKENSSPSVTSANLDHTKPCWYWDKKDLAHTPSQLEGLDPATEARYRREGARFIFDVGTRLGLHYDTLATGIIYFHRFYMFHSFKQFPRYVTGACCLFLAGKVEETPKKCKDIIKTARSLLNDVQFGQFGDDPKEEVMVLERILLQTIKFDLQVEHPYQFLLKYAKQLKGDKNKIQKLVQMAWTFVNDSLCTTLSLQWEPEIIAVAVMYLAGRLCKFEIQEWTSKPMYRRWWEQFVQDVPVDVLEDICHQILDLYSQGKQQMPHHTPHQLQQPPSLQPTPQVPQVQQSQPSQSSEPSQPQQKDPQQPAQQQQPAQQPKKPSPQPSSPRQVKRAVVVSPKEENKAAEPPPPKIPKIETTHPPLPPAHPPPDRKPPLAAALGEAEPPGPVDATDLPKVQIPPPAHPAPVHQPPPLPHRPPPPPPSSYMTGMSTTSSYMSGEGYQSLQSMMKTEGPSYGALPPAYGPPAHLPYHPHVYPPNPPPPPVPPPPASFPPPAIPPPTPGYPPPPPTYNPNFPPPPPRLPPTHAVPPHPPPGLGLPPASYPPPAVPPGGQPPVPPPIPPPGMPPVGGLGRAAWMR

| Structure (SMILES) | DC50 | (IC50 CDK12 high ATP) to (Degradation DC50 CDK12) ratio |
| --- | --- | --- |
| C[C@@H]1CN(c2nc(NCc3nnc(-c4ccccc4)[nH]3)n3ncc(Br)c3n2)C[C@H](C)N1C [Example 125, 8-bromo-N-[(5-phenyl-4H-1,2,4-triazol-3-yl)methyl]-2-[(3R,5S)-3,4,5-trimethylpiperazin-1-yl]pyrazolo[1,5-a][1,3,5]triazin-4-amine] | 6.3 nM | 1724 |
| CC1(C)CN(c2nc(NCc3nc4ccccc4[nH]3)n3ncc(C4CC4)c3n2)CCO1 [Example 123, N-[(1H-benzimidazol-2-yl)methyl]-8-cyclopropyl-2-(2,2-dimethylmorpholin-4-yl)pyrazolo[1,5-a][1,3,5]triazin-4-amine] | 4.37 nM | 2883 |
| Brc1cnn2c(NCc3nnc(-c4ccccc4)[nH]3)nc(N3C[C@@H]4C[C@H]3CO4)nc12 [Example 120, 8-bromo-2-[(1S,4S)-2-oxa-5-azabicyclo[2.2.1]heptan-5-yl]-N-[(5-phenyl-4H-1,2,4-triazol-3-yl)methyl]pyrazolo[1,5-a][1,3,5]triazin-4-amine] | 5.08 nM | 2588 |
| Brc1cnn2c(NCc3nc4ccccc4[nH]3)nc(N3CCOCC3C3CC3)nc12 (stereo not drawn) [Example 117, N-(1H-benzimidazol-2-ylmethyl)-8-bromo-2-(3-cyclopropylmorpholin-4-yl)pyrazolo[1,5-a][1,3,5]triazin-4-amine] | 3.77 nM | 1278 |
| Brc1cnn2c(NCc3nnc(-c4ccccc4)[nH]3)nc(N3CCNCC3)nc12.O=CO [Example 119, 8-bromo-N-[(5-phenyl-4H-1,2,4-triazol-3-yl)methyl]-2-piperazin-1-yl-pyrazolo[1,5-a][1,3,5]triazin-4-amine formate] | 1.54 nM | 4303 |
| c1ccc2[nH]c(CNc3nc(N4CCOCC4)nc4c(-c5ccncc5)cnn34)nc2c1 [Example 111, N-[(1H-benzimidazol-2-yl)methyl]-2-(morpholin-4-yl)-8-(pyridin-4-yl)pyrazolo[1,5-a][1,3,5]triazin-4-amine hydrogen chloride (1/1)] | 1.22 nM | >1337 |
| Brc1cnn2c(NCc3nc4ccccc4[nH]3)nc(N3CCN4CCC[C@H]4C3)nc12 [Example 148, N-[(1H-benzimidazol-2-yl)methyl]-8-bromo-2-[(8aS)-hexahydropyrrolo[1,2-a]pyrazin-2 (1 H)-yl]pyrazolo[1,5-a][1,3,5]triazin-4-amine] | 16 nM | 677 |
| CC1(C)CN(c2nc(NCc3nnc(-c4ccccc4)[nH]3)n3ncc(C4CC4)c3n2)CCO1 [Example 94, 8-cyclopropyl-2-(2,2-dimethylmorpholin-4-yl)-N-[(5-phenyl-4H-1,2,4-triazol-3-yl)methyl]pyrazolo[1,5-a][1,3,5]triazin-4-amine] | 25 nM | 352 |
| Fc1ccccc1-c1cnn2c(NCc3nc4ccccc4[nH]3)nc(N3CCOCC3)nc12 [Example 95, N-[(1H-benzimidazol-2-yl)methyl]-8-(2-fluorophenyl)-2-(morpholin-4-yl)pyrazolo[1,5-a][1,3,5]triazin-4-amine] | 34.3 nM | >584 |
